From PubChem BioAssay (NCI) come the findings set out here.

The structures appear in SMILES notation. Where “and” joins values, the source holds several entries; their conditions need not be identical. Equal entries are not always repeated.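 Growth conditions: 96-well plates. Treatment: test compound, 48 hours, 5 concentrations. Analysis: linear interpolation between bracketing concentrations; unreached endpoints set to highest concentration. GI50 is the concentration that inhibits growth by half. Definition used: TGI = concentration required for complete inhibition of growth.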 Where a SMILES comes first, the peptide text is derived from it. [ ]: non-standard residue; d: D form. Orn = NCCC[CH](N)C(=O)O

Some test systems named below: OVCAR-4 ovarian; MDA-MB-231 breast; HL-60(TB) leukemia; M14 melanoma; SR leukemia; SK-MEL-2 melanoma; EKVX NSCLC; HCC-2998 colon.
Holding throughout (assay): NCI tumour cell line growth inhibition, 48 h

As to `Cc1cc(Cl)ccc1Nc1nc(C(F)(F)F)ccc1C(=O)N/N=C/c1c(Cl)cccc1Cl`, the GI50 with OVCAR-4 ovarian was 289 nM; in the test on MDA-MB-231 breast, 249 nM; with HL-60(TB) leukemia, 229 nM; with M14 melanoma it was 536 nM; in the test with SR leukemia, 263 nM; in the test with SK-MEL-2 melanoma, 272 nM. Further, the GI50 is 211 nM with EKVX NSCLC and 459 nM in the test with HCC-2998 colon. Besides, the TGI in the test with OVCAR-4 ovarian was > 100000 nM; with HL-60(TB) leukemia it was 530 nM; with M14 melanoma, > 100000 nM; with SR leukemia, > 100000 nM; in the test with SK-MEL-2 melanoma, 1330 nM; with EKVX NSCLC, 2970 nM. In addition, the TGI with HCC-2998 colon was > 100000 nM.
Take `CCN(CC)CCCC(C)Nc1ccnc2cc(Cl)c(SCc3ccccc3)cc12` (centres undefined): the GI50 in the test with OVCAR-4 ovarian is 1530 nM; in the test with MDA-MB-231 breast it was 1270 nM; in the test on HL-60(TB) leukemia it was 1810 nM; in the test with M14 melanoma, 189 nM; with SR leukemia, 173 nM; in the test on SK-MEL-2 melanoma, 1640 nM. The results for the GI50 in the test on EKVX NSCLC and with HCC-2998 colon were 1930 nM and 511 nM, respectively. Further, the TGI worked out at 4050 nM with OVCAR-4 ovarian; 2900 nM with MDA-MB-231 breast; 4230 nM in the test on HL-60(TB) leukemia; 351 nM in the test on M14 melanoma; 539 nM in the test with SR leukemia; 3220 nM with SK-MEL-2 melanoma. Besides, the TGI came to 6750 nM with EKVX NSCLC and 1880 nM in the test with HCC-2998 colon.
Regarding `CC(C)CC1NC(=O)C(CCCN)NC(=O)C(C(C)C)NC(=O)C2CCCN2C(=O)C(Cc2ccccc2)NC(=O)C(CC(C)C)NC(=O)C(CCCN)NC(=O)C(C(C)C)NC(=O)C2CCCN2C(=O)C(Cc2ccccc2)NC1=O` (centres undefined) (cyclo(FPV[Orn]LFPV[Orn]L); configuration not given here), the GI50 in the test with OVCAR-4 ovarian was 13.3 nM; in the test with MDA-MB-231 breast, 20.9 nM and 24.2 nM; with HL-60(TB) leukemia, 15.1 nM and 37.1 nM; with M14 melanoma, 10.1 nM; with SR leukemia, 14.8 nM and 36 nM; with SK-MEL-2 melanoma, 9.39 nM and 24.3 nM. The GI50 in the test with EKVX NSCLC was 10.5 nM and 17.5 nM; with HCC-2998 colon it was < 3.25 nM. Moreover, the TGI in the test with MDA-MB-231 breast is 146 nM and 87.7 nM; in the test with HL-60(TB) leukemia, 104 nM and 251 nM; with M14 melanoma it was 609 nM and 1520 nM; in the test with SR leukemia, 258 nM and 960 nM; in the test with SK-MEL-2 melanoma it was 40.4 nM and 89.1 nM; in the test with EKVX NSCLC, 442 nM and 1230 nM. In addition, the TGI in the test on HCC-2998 colon is 1290 nM and 1740 nM.
For `N=C(N)c1ccc(-c2ccc(-c3ccco3)o2)cc1F`, the GI50 in the test with OVCAR-4 ovarian is 2880 nM; with MDA-MB-231 breast, 1600 nM; in the test on HL-60(TB) leukemia it was 2190 nM; with M14 melanoma, 1880 nM; with SR leukemia, 1970 nM; in the test with SK-MEL-2 melanoma, 2090 nM. For the same molecule, the GI50 in the test on HCC-2998 colon is 1940 nM. For the same molecule, the TGI in the test with OVCAR-4 ovarian worked out at 11100 nM; in the test with MDA-MB-231 breast, 4010 nM; with HL-60(TB) leukemia it was 4290 nM; in the test on M14 melanoma, 3760 nM; in the test with SR leukemia it was 5400 nM; with SK-MEL-2 melanoma, 3720 nM. For the same molecule, the TGI in the test on HCC-2998 colon amounted to 3800 nM.
Consider `O=C(Nc1cccc2ccccc12)c1cc2ccccc2cc1O`, for which the GI50 in the test on OVCAR-4 ovarian was 2690 nM; with MDA-MB-231 breast it was 1770 nM; in the test with HL-60(TB) leukemia it was 2370 nM; in the test on M14 melanoma, 3140 nM; with SR leukemia it was 2570 nM; in the test with SK-MEL-2 melanoma, 2140 nM. Also, the GI50 was 1770 nM with EKVX NSCLC and 3500 nM in the test on HCC-2998 colon. The TGI is 35900 nM in the test on OVCAR-4 ovarian; 4460 nM with MDA-MB-231 breast; 8220 nM with HL-60(TB) leukemia; 20400 nM in the test on M14 melanoma; 9730 nM in the test with SR leukemia; 4690 nM in the test on SK-MEL-2 melanoma. The TGI with EKVX NSCLC stood at 6180 nM; with HCC-2998 colon, 13300 nM.
As to `COC(=O)/C(Br)=C/c1c[nH]c2ccc(Br)cc12`, the GI50 in the test with OVCAR-4 ovarian is 10700 nM; in the test on MDA-MB-231 breast, 11200 nM; in the test on HL-60(TB) leukemia, 61300 nM; in the test with M14 melanoma, 11400 nM; in the test with SR leukemia, 26900 nM; in the test with SK-MEL-2 melanoma, 6900 nM. Besides, the GI50 with EKVX NSCLC is 12300 nM; in the test with HCC-2998 colon, 15900 nM. For the same molecule, the TGI is 56800 nM in the test on OVCAR-4 ovarian; 30400 nM in the test on MDA-MB-231 breast; > 100000 nM in the test with HL-60(TB) leukemia; 25800 nM in the test with M14 melanoma; > 100000 nM with SR leukemia; 25400 nM in the test with SK-MEL-2 melanoma. Further, the results for the TGI in the test on EKVX NSCLC and in the test on HCC-2998 colon were 29700 nM and 30400 nM, respectively.
Turning to `Cc1cccc2c(=O)c3c(sc12)c(NCCN)nc1ccccc13`, the GI50 in the test on OVCAR-4 ovarian was 935 nM; in the test on MDA-MB-231 breast it was 664 nM; in the test with HL-60(TB) leukemia, 864 nM; with M14 melanoma, 808 nM; with SR leukemia, 719 nM; in the test on SK-MEL-2 melanoma, 995 nM. Besides, the results for the GI50 in the test on EKVX NSCLC and in the test on HCC-2998 colon were 815 nM and 798 nM, respectively. Further, the TGI with OVCAR-4 ovarian was determined as 2160 nM; with MDA-MB-231 breast, 1410 nM; with HL-60(TB) leukemia, 1740 nM; with M14 melanoma, 1550 nM; in the test with SR leukemia, 1850 nM; in the test with SK-MEL-2 melanoma it was 2150 nM. The TGI with EKVX NSCLC stood at 1710 nM; in the test on HCC-2998 colon, 1580 nM.
Regarding `CCOC(=O)C1=C(N)Oc2cc(OC)ccc2C1c1ccc(F)c(F)c1` (centres undefined), the GI50 was 3370 nM in the test with OVCAR-4 ovarian; 2480 nM in the test on MDA-MB-231 breast; 404 nM in the test with HL-60(TB) leukemia; 483 nM in the test on M14 melanoma; 533 nM with SR leukemia; 542 nM in the test on SK-MEL-2 melanoma. The results for the GI50 in the test on EKVX NSCLC and in the test on HCC-2998 colon were 3670 nM and 4140 nM, respectively. In addition, the TGI with OVCAR-4 ovarian is 18600 nM; in the test on MDA-MB-231 breast it was 13800 nM; in the test on HL-60(TB) leukemia, 4800 nM; in the test on M14 melanoma, 13500 nM; in the test with SR leukemia, 16700 nM; in the test with SK-MEL-2 melanoma, 15800 nM. In addition, the TGI was determined as 17900 nM in the test with EKVX NSCLC and 18400 nM with HCC-2998 colon.
As for `N=C1N=Nc2nc(C3(c4nc5n(c4O)C(=N)N=N5)Cc4ccccc4C3=O)c(O)n21` (centres undefined), the GI50 with OVCAR-4 ovarian and in the test with SK-MEL-2 melanoma was > 100000 nM throughout. The TGI with OVCAR-4 ovarian, in the test on MDA-MB-231 breast, in the test with HL-60(TB) leukemia, in the test on M14 melanoma, in the test with SR leukemia and in the test with SK-MEL-2 melanoma was > 100000 nM in each case. Further, the TGI in the test on EKVX NSCLC and in the test with HCC-2998 colon was > 100000 nM in each case.
